In ChEMBL document CHEMBL1201862, “PubChem BioAssay data set” (2004):
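Cultured in 96-well plates, cells were exposed to test compound for 48 hours across five concentrations. GI50: concentration for 50% inhibition of growth.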 The source made the active and inactive calls. Cut-off read from the data, not from the text of the source: active = GI50 up to about 1.1 µM and inactive = higher.

What was measured:
Assay in all cases: inhibition of tumour cell growth, NCI panel, 48 h
HCC 2998 = system: HCC 2998
SNB-19 = system: SNB-19
OVCAR-3 = system: OVCAR-3
U-251 = system: U-251
MDA-MB-435 = system: MDA-MB-435
HT-29 = system: HT-29
MDA-MB-231 = system: MDA-MB-231
NCI-H460 = system: NCI-H460
NCI/ADR-RES = system: NCI/ADR-RES
DU-145 = system: DU-145
KM12 = system: KM12
SK-MEL-28 = system: SK-MEL-28
K562 = system: K562
SK-OV-3 = system: SK-OV-3
SK-MEL-2 = system: SK-MEL-2
SF-295 = system: SF-295
NCI-H23 = system: NCI-H23
RXF 393 = system: RXF 393
OVCAR-5 = system: OVCAR-5
NCI-H522 = system: NCI-H522
Hs-578T = system: Hs-578T
A549 = system: A549
COLO 205 = system: COLO 205
ACHN = system: ACHN
HCT-15 = system: HCT-15
UO-31 = system: UO-31
MCF7 = system: MCF7
SW-620 = system: SW-620
CAKI-1 = system: CAKI-1
PC-3 = system: PC-3
SR = system: SR
HOP-62 = system: HOP-62
RPMI-8226 = system: RPMI-8226
LOX IMVI = system: LOX IMVI
SF-539 = system: SF-539
HOP-92 = system: HOP-92
SK-MEL-5 = system: SK-MEL-5
UACC-62 = system: UACC-62
786-0 = system: 786-0
IGROV-1 = system: IGROV-1
SF-268 = system: SF-268
OVCAR-8 = system: OVCAR-8
MOLT-4 = system: MOLT-4
BT-549 = system: BT-549
SNB-75 = system: SNB-75
Malme-3M = system: Malme-3M
UACC-257 = system: UACC-257
OVCAR-4 = system: OVCAR-4
SN12C = system: SN12C
M14 = system: M14
HCT-116 = system: HCT-116
EKVX = system: EKVX
TK-10 = system: TK-10
CCRF-CEM = system: CCRF-CEM
NCI-H226 = system: NCI-H226
T47D = system: T47D
HL-60 = system: HL-60
MDA-N = system: MDA-N
A498 = system: A498

Question: For COC(=O)CCC(=O)NC1c2cccc3cccc(c23)Cn2c(=O)n(C)c(=O)n21 (configuration not stated), which GI50 (HCC 2998) is on record?
Answer: > 100 µM (inactive)

Question: And the GI50 (SNB-19)?
Answer: > 100 µM (inactive)

Question: And the GI50 (OVCAR-3)?
Answer: > 100 µM (inactive)

Question: And the GI50 (U-251)?
Answer: > 100 µM (inactive)

Question: What about the GI50 (MDA-MB-435) of the same compound?
Answer: > 100 µM (inactive)

Question: And the GI50 (HT-29)?
Answer: > 100 µM (inactive)

Question: And the GI50 (MDA-MB-231)?
Answer: > 100 µM (inactive)

Question: What about the GI50 (NCI-H460) of the same compound?
Answer: > 100 µM (inactive)

Question: What about the GI50 (NCI/ADR-RES) of the same compound?
Answer: > 100 µM (inactive)

Question: And the GI50 (DU-145)?
Answer: > 100 µM (inactive)

Question: What about the GI50 (KM12) of the same compound?
Answer: > 100 µM (inactive)

Question: What about the GI50 (SK-MEL-28) of the same compound?
Answer: > 100 µM (inactive)

Question: And the GI50 (K562)?
Answer: > 100 µM (inactive)

Question: What about the GI50 (SK-OV-3) of the same compound?
Answer: > 100 µM (inactive)

Question: What about the GI50 (SK-MEL-2) of the same compound?
Answer: > 100 µM (inactive)

Question: What about the GI50 (SF-295) of the same compound?
Answer: > 100 µM (inactive)

Question: And the GI50 (NCI-H23)?
Answer: > 100 µM (inactive)

Question: And the GI50 (RXF 393)?
Answer: > 100 µM (inactive)

Question: And the GI50 (OVCAR-5)?
Answer: > 100 µM (inactive)

Question: And the GI50 (NCI-H522)?
Answer: > 100 µM (inactive)

Question: And the GI50 (Hs-578T)?
Answer: > 100 µM (inactive)

Question: What about the GI50 (A549) of the same compound?
Answer: > 100 µM (inactive)

Question: What about the GI50 (COLO 205) of the same compound?
Answer: > 100 µM (inactive)

Question: What about the GI50 (ACHN) of the same compound?
Answer: > 100 µM (inactive)

Question: What about the GI50 (HCT-15) of the same compound?
Answer: > 100 µM

Question: What about the GI50 (UO-31) of the same compound?
Answer: > 100 µM (inactive)

Question: And the GI50 (MCF7)?
Answer: > 100 µM (inactive)

Question: What about the GI50 (SW-620) of the same compound?
Answer: > 100 µM (inactive)

Question: And the GI50 (CAKI-1)?
Answer: > 100 µM (inactive)

Question: And the GI50 (PC-3)?
Answer: > 100 µM (inactive)

Question: And the GI50 (SR)?
Answer: > 100 µM (inactive)

Question: And the GI50 (HOP-62)?
Answer: > 100 µM (inactive)

Question: And the GI50 (RPMI-8226)?
Answer: > 100 µM (inactive)

Question: What about the GI50 (LOX IMVI) of the same compound?
Answer: > 100 µM (inactive)

Question: What about the GI50 (SF-539) of the same compound?
Answer: > 100 µM (inactive)

Question: And the GI50 (HOP-92)?
Answer: > 100 µM (inactive)

Question: And the GI50 (SK-MEL-5)?
Answer: > 100 µM (inactive)

Question: What about the GI50 (UACC-62) of the same compound?
Answer: > 100 µM (inactive)

Question: What about the GI50 (786-0) of the same compound?
Answer: > 100 µM (inactive)

Question: What about the GI50 (IGROV-1) of the same compound?
Answer: > 100 µM (inactive)

Question: What about the GI50 (SF-268) of the same compound?
Answer: > 100 µM (inactive)

Question: And the GI50 (OVCAR-8)?
Answer: > 100 µM (inactive)

Question: What about the GI50 (MOLT-4) of the same compound?
Answer: > 100 µM (inactive)

Question: What about the GI50 (BT-549) of the same compound?
Answer: > 100 µM (inactive)

Question: And the GI50 (SNB-75)?
Answer: > 100 µM (inactive)

Question: And the GI50 (Malme-3M)?
Answer: > 100 µM (inactive)

Question: And the GI50 (UACC-257)?
Answer: > 100 µM (inactive)

Question: And the GI50 (OVCAR-4)?
Answer: > 100 µM (inactive)

Question: What about the GI50 (SN12C) of the same compound?
Answer: > 100 µM (inactive)

Question: What about the GI50 (M14) of the same compound?
Answer: > 100 µM (inactive)

Question: What about the GI50 (HCT-116) of the same compound?
Answer: > 100 µM (inactive)

Question: And the GI50 (EKVX)?
Answer: > 100 µM (inactive)

Question: And the GI50 (TK-10)?
Answer: > 100 µM (inactive)

Question: And the GI50 (CCRF-CEM)?
Answer: > 100 µM (inactive)

Question: How did the GI50 (HCC 2998) turn out when COC1(C)OC[C@@]2(C)OC(C)C1(C)C2O[Si](C(C)C)(C(C)C)C(C)C (some centres not stated) was run?
Answer: 20.1 µM (inactive)

Question: What about the GI50 (NCI-H226) of the same compound?
Answer: 19.5 µM (inactive)

Question: What about the GI50 (SNB-19) of the same compound?
Answer: 48.9 µM (inactive)

Question: And the GI50 (OVCAR-3)?
Answer: 20.9 µM (inactive)

Question: What about the GI50 (U-251) of the same compound?
Answer: 28.5 µM (inactive)

Question: What about the GI50 (MDA-MB-435) of the same compound?
Answer: 28.7 µM (inactive)

Question: What about the GI50 (HT-29) of the same compound?
Answer: 28.7 µM (inactive)

Question: What about the GI50 (MDA-MB-231) of the same compound?
Answer: 26.4 µM (inactive)

Question: And the GI50 (NCI-H460)?
Answer: 23.7 µM (inactive)

Question: And the GI50 (NCI/ADR-RES)?
Answer: 22.1 µM (inactive)

Question: And the GI50 (DU-145)?
Answer: 38.7 µM (inactive)

Question: What about the GI50 (KM12) of the same compound?
Answer: 31.8 µM (inactive)

Question: What about the GI50 (SK-MEL-28) of the same compound?
Answer: 38.4 µM (inactive)

Question: And the GI50 (K562)?
Answer: 26.5 µM (inactive)

Question: What about the GI50 (SK-OV-3) of the same compound?
Answer: 24.4 µM (inactive)

Question: And the GI50 (SK-MEL-2)?
Answer: 21 µM (inactive)

Question: And the GI50 (SF-295)?
Answer: 19.9 µM (inactive)

Question: And the GI50 (NCI-H23)?
Answer: 25.7 µM (inactive)

Question: And the GI50 (RXF 393)?
Answer: 27 µM (inactive)

Question: And the GI50 (OVCAR-5)?
Answer: 26.6 µM (inactive)

Question: What about the GI50 (NCI-H522) of the same compound?
Answer: 27.9 µM (inactive)

Question: What about the GI50 (T47D) of the same compound?
Answer: 27.6 µM (inactive)

Question: What about the GI50 (Hs-578T) of the same compound?
Answer: 22.2 µM (inactive)

Question: What about the GI50 (A549) of the same compound?
Answer: 32.2 µM (inactive)

Question: And the GI50 (COLO 205)?
Answer: 17.8 µM (inactive)

Question: And the GI50 (ACHN)?
Answer: 25.2 µM (inactive)

Question: What about the GI50 (HCT-15) of the same compound?
Answer: 22.4 µM

Question: And the GI50 (HL-60)?
Answer: 17.5 µM (inactive)

Question: What about the GI50 (UO-31) of the same compound?
Answer: 45 µM (inactive)

Question: And the GI50 (MCF7)?
Answer: 18.4 µM (inactive)

Question: What about the GI50 (SW-620) of the same compound?
Answer: 33.5 µM (inactive)

Question: And the GI50 (CAKI-1)?
Answer: 28.6 µM (inactive)

Question: And the GI50 (PC-3)?
Answer: 31.2 µM (inactive)

Question: What about the GI50 (SR) of the same compound?
Answer: 27.6 µM (inactive)

Question: And the GI50 (HOP-62)?
Answer: 28.6 µM (inactive)

Question: And the GI50 (RPMI-8226)?
Answer: 28.2 µM (inactive)

Question: And the GI50 (LOX IMVI)?
Answer: 20.7 µM (inactive)

Question: What about the GI50 (SF-539) of the same compound?
Answer: 33.1 µM (inactive)

Question: And the GI50 (HOP-92)?
Answer: 24.9 µM (inactive)

Question: What about the GI50 (SK-MEL-5) of the same compound?
Answer: 20.9 µM (inactive)

Question: And the GI50 (UACC-62)?
Answer: 31 µM (inactive)

Question: And the GI50 (786-0)?
Answer: 43.2 µM (inactive)

Question: What about the GI50 (IGROV-1) of the same compound?
Answer: 28.7 µM (inactive)

Question: And the GI50 (SF-268)?
Answer: 31.8 µM (inactive)

Question: And the GI50 (OVCAR-8)?
Answer: 36.8 µM (inactive)

Question: And the GI50 (MOLT-4)?
Answer: 21.2 µM (inactive)

Question: What about the GI50 (SNB-75) of the same compound?
Answer: 26.9 µM (inactive)

Question: What about the GI50 (Malme-3M) of the same compound?
Answer: 18 µM (inactive)

Question: And the GI50 (UACC-257)?
Answer: 19.9 µM (inactive)

Question: What about the GI50 (OVCAR-4) of the same compound?
Answer: 30.3 µM (inactive)

Question: And the GI50 (SN12C)?
Answer: 23 µM (inactive)

Question: What about the GI50 (M14) of the same compound?
Answer: 37.6 µM (inactive)

Question: And the GI50 (MDA-N)?
Answer: 31.4 µM (inactive)

Question: What about the GI50 (A498) of the same compound?
Answer: 66.8 µM (inactive)

Question: What about the GI50 (HCT-116) of the same compound?
Answer: 29.2 µM (inactive)

Question: What about the GI50 (EKVX) of the same compound?
Answer: 24.9 µM (inactive)

Question: What about the GI50 (TK-10) of the same compound?
Answer: 25.4 µM (inactive)

Question: And the GI50 (CCRF-CEM)?
Answer: 25.1 µM (inactive)
